# Experimental data published in patent publication US20220233558A1, “METHOD AND COMPOSITION FOR PREDICTING EFFICACY OF BCL2/BCL-XL INHIBITORS ON CANCER” (Ascentage Pharma (Suzhou) Co., Ltd., priority 2019, published 2022).
# Assays:
# BCL-XL:BIM complex [1] = biological target: T1, BCL-XL:BIM complex (Homo sapiens, UniProt Q07817); experiment: MSD advanced ELISA of BCL-XL:BIM complex in Toledo cells; type: cell-based; parameters: endogenous in cells; host or cells: Toledo; details: treated for 24 hours
# Method: (§1) MSD advanced ELISA is a method similar to enzyme-linked immunosorbent assay (ELISA) except MSD uses electrochemiluminescence (ECL) as a detection technique while ELISA uses a colormetric reaction. In general, a solution (e.g. cell lysate) containing the protein/complex of interest is added to a substrate (e.g., wells in a plate) coated with a capture antibody specifically binding to a protein of interest. After washing, a second antibody specifically binding to a partner protein that binds to the protein of interest is added. The second antibody (or an antibody binding to the second antibody) is linked to an ECL agent, e.g. a ruthenium (Ru) metal ion, and the substrate contains an electrode. In the presence of the partner protein/protein complex, the second antibody binds to the protein complex, and the ruthenium ion will be close enough proximity to the electrode to trigger an oxidation-reduction reaction that produces light which can be detected by a CCD camera. Compared to a traditional ELISA, MSD has many advantages such as higher sensitivity, better dynamic range, less matric effects, less sample required and better efficiencies. As a result, MSD can be used to detect a protein complex in cell lysate.
# (§2) Toledo (a diffuse large B cell lymphoma line) and RS4;11 (an acute lymphocytic leukemia line) were chosen for the study. Cells were treated for 24 hours with compounds specified in FIGS. 6A and 7A (Toledo), and FIGS. 6B and 7B (RS4;11; Compound B, ABT-737 and ABT-263 were used the same concentrations for each cell line) and harvested for complex analysis. Both BCL-2:BIM and BCL-XL:BIM complex were analyzed following previously established MSD advanced ELISA methods.
# BCL-XL:BIM complex [2] = biological target: T1, BCL-XL:BIM complex; experiment: MSD advanced ELISA of BCL-XL:BIM complex in RS4;11 cells; type: cell-based; parameters: endogenous in cells; host or cells: Toledo; details: treated for 24 hours
# Method: as §1, §2
# cancer cell lines = experiment: Cell growth inhibitory activity in vitro; type: cell-based; details: subset of cancer cell lines
# BCL-XL:BIM complex [3] = biological target: T1, BCL-XL:BIM complex; experiment: MSD assay of BCL-XL complexes in gastric and esophageal cancer PDX models; type: in vivo; parameters: endogenous in cells
# Method: as §1, with “Compared to a traditional ELISA, MSD has many advantages such as higher sensitivity, better dynamic range, less matric effects, less sample required and better efficiencies. As a result, MSD can be used to detect a protein complex in cell lysate.” left out
# PDX models (including 8 gastric cancers and 3 esophageal cancers) were selected for trials with BCL-2/BCL-XL dual inhibitor Compound A. Models were treated with 100 mg/kg twice weekly dosing schedule for three weeks, and tumor tissues were harvested for complexes analysis (specified in the figure panels) with MSD methods. […] TGI for each animal was calculated.
# Mcl-1 protein = Mcl-1 protein (Homo sapiens, UniProt Q07820); experiment: Binding affinity to Mcl-1 protein
# caspase-3 and PARP = experiment: Cleavage of caspase-3 and PARP (apoptosis markers); type: cell-based; details: in cancer cells and in xenograft tumor tissues
# BCL-w = biological target: T2, BCL-w (Homo sapiens, UniProt Q92843); experiment: Binding affinity to BCL-w protein
# T2 sequence (Q92843 1-193): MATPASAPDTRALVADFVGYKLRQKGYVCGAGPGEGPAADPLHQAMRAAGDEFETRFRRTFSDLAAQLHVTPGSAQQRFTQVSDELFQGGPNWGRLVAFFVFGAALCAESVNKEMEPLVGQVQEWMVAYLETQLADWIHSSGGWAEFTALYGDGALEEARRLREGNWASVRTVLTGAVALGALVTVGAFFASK
# [4] = test system: BCL-2, MCL-1, BIM, PUMA protein levels; experiment: Western blotting of apoptosis proteins in PDX samples; type: in vivo; details: PDX models, Western blot
# Method: PDX models (including 8 gastric cancers and 3 esophageal cancers) were selected for trials with BCL-2/BCL-XL dual inhibitor Compound A. Models were treated with 100 mg/kg twice weekly dosing schedule for three weeks, and tumor tissues were harvested for complexes analysis (specified in the figure panels) with MSD methods. Pharmacodynamics (PD) and biomarker studies of Compound A treatment were performed by MSD and Western blotting (WB) assays. Specifically, protein extraction was performed with the sample, level of protein complex was measured by MSD methods, and the level of protein was measured by Western Blotting. TGI for each animal was calculated.
# BCL-2 = BCL-2 (Homo sapiens, UniProt P10415); experiment: Binding affinity to BCL-2 protein
# BCL-xL = BCL-xL (Homo sapiens, UniProt Q07817); experiment: Binding affinity to BCL-xL protein
# BCL-2:BIM complex = BCL-2:BIM complex (Homo sapiens, UniProt P10415); experiment: MSD advanced ELISA of BCL-2:BIM complex in Toledo and RS4;11 cells; type: cell-based; details: treated for 24 hours
# Sequence of BCL-2:BIM complex (P10415 whole entry, one chain of several): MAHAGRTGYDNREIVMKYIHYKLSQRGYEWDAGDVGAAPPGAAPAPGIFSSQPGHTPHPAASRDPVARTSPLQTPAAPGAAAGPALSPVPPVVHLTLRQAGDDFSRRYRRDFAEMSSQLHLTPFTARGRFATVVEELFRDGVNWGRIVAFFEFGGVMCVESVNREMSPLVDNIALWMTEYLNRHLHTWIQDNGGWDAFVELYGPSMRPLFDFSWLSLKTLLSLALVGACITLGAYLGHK
# Method: Toledo (a diffuse large B cell lymphoma line) and RS4;11 (an acute lymphocytic leukemia line) were chosen for the study. […] Both BCL-2:BIM and BCL-XL:BIM complex were analyzed following previously established MSD advanced ELISA methods.
# T1 sequence (Q07817 whole entry, one chain of several): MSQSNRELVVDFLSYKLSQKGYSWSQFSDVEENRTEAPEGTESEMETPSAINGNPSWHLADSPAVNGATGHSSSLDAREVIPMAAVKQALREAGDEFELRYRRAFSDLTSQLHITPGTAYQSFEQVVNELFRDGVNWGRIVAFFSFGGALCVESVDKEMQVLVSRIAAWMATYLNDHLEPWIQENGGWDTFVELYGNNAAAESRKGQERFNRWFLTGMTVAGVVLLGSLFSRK
# Sequence of BCL-xL (Q07817 whole entry): as the sequence (Q07817 whole entry, one chain of several) above
# Sequence of BCL-2 (P10415 whole entry): as the sequence (P10415 whole entry, one chain of several) above
# Sequence of Mcl-1 protein (Q07820 whole entry): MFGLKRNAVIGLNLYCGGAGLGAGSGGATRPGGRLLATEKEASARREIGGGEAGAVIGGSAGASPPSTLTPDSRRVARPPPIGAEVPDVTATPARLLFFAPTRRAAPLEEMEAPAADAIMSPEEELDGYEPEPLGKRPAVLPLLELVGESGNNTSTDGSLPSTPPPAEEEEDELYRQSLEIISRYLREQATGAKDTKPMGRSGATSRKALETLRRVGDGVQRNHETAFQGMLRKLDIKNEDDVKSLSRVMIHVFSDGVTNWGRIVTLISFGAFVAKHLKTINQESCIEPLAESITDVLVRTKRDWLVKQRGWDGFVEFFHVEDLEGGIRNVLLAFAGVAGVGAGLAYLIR
structure (smiles),measurement,setting,value
"Cc1c(S(C)(=O)=O)c(-c2cc(F)cc(N3CCN(c4ccc(NS(=O)(=O)c5ccc(N[C@H](CCN6CCC(C(=O)O)CC6)CSc6ccccc6)c(S(=O)(=O)C(F)(F)F)c5)cc4)CC3)c2)c(-c2ccc(Cl)cc2)n1C(C)C [Compound B, (R)-1-(3-(4-(N-(4-(4-(3-(2-(4-chlorophenyl)-1-isopropyl-5-methyl-4-(methylsulfonyl)-1H-pyrrol-3-yl)-5-fluorophenyl)piperazin-1-yl)phenyl)sulfamoyl)-2-(trifluoromethylsulfonyl)phenylamino)-4-(phenylthio)butyl)piperldine-4-carboxylic acid]",disruption of BCL-XL:BIM complex,BCL-XL:BIM complex [1],more potently disrupted BCL-XL:BIM than BCL-2:BIM complex
same,disruption of BCL-XL:BIM complex,BCL-XL:BIM complex [2],more potently disrupted BCL-XL:BIM than BCL-2:BIM complex
CN(C)CC[C@H](CSc1ccccc1)Nc1ccc(S(=O)(=O)NC(=O)c2ccc(N3CCN(Cc4ccccc4-c4ccc(Cl)cc4)CC3)cc2)cc1[N+](=O)[O-] [ABT-737],disruption of BCL-XL:BIM complex,BCL-XL:BIM complex [1],much less disruption of BCL-XL:BIM complex than Compound B
same,disruption of BCL-XL:BIM complex,BCL-XL:BIM complex [2],almost no disruption of BCL-xL:BIM complex
"Cc1c(S(C)(=O)=O)c(-c2cc(F)cc(N3CCN(c4ccc(NS(=O)(=O)c5ccc(N[C@H](CCN6CCC(C(=O)OCCP(=O)(O)O)CC6)CSc6ccccc6)c(S(=O)(=O)C(F)(F)F)c5)cc4)CC3)c2)c(-c2ccc(Cl)cc2)n1C(C)C [Compound A, (R)-2-(1-(3-(4-(N-(4-(4-(3-(2-(4-chlorophenyl)-1-isopropyl-5-methyl-4-(methylsulfonyl)-1H-pyrrol-3-yl)-5-fluorophenyl)piperazin-1-yl)phenyl)sulfamoyl)-2-(trifluoromethylsulfonyl)phenylamino)-4-(phenylthiol)butyl)piperidine-4-carbonyloxy)ethylphosphonic acid]",cell growth inhibitory activity,cancer cell lines,nanomolar potencies
same,level of BCL-XL:BIM complex after treatment,"BCL-XL:BIM complex [3]; PDX models, 100 mg/kg twice weekly for three weeks, MSD assay",dropped
same,targeting of BCL-XL versus BCL-2 complex,BCL-XL:BIM complex [3]; in PDX,better in targeting BCL-XL than BCL-2 complex
same,affinity to Mcl-1 protein,Mcl-1 protein,weak affinity
same,cleavage of caspase-3 and PARP,caspase-3 and PARP,effectively induces cleavage of caspase-3 and PARP
same,IC50,BCL-w,9.3 nM
same,BCL-2 and MCL-1 anti-death protein levels after treatment,[4],significantly or in trend increases
same,pro-death proteins BIM or PUMA levels after treatment,[4],but not pro-death proteins BIM or PUMA
same,IC50,BCL-2,1.6 nM
same,IC50,BCL-xL,4.4 nM
CC1(C)CCC(c2ccc(Cl)cc2)=C(CN2CCN(c3ccc(C(=O)NS(=O)(=O)c4ccc(N[C@H](CCN5CCOCC5)CSc5ccccc5)c(S(=O)(=O)C(F)(F)F)c4)cc3)CC2)C1 [ABT-263],change in BCL-2:BIM complex,BCL-2:BIM complex,reduction in BCL-2:BIM complex
same,disruption of BCL-XL:BIM complex,BCL-XL:BIM complex [1],much less disruption of BCL-XL:BIM complex than Compound B
same,disruption of BCL-XL:BIM complex,BCL-XL:BIM complex [2],much less disruption of BCL-XL:BIM complex than Compound B
